“And” between values parts separate entries of the source, which are not always exact repeats. Identical values can stand only once. Inconclusive results and toxic doses are left out. Residues, ends and D or L forms follow the SMILES beside them. *: point of attachment. Trt = c1ccc(C(c2ccccc2)(c2ccccc2)*)cc1; Boc = CC(C)(C)OC(=O)*
Tested on: CD2F1 mice, L1210 leukemia ip, survival T/C
Test: NCI In Vivo Anticancer Drug Screen. Data for tumor model L1210 Leukemia (intraperitoneal) in CD2F1 (CDF1) mice
Conditions: higher = longer survival
Outline: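 Read-out first: treated-group measurement over vehicle-control measurement, expressed as a ratio. Animals bore a transplanted tumor line and were dosed with compound or vehicle.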

[1] = endpoint: mean survival time, dose: 100.0 mg/kg/injection, schedule: Q01DX009 (ip), vehicle: saline with Tween-80
[2] = endpoint: mean survival time, dose: 100.0 mg/kg/injection, schedule: Q04DX003 (ip), vehicle: saline with Tween-80
[3] = endpoint: mean survival time, dose: 200.0 mg/kg/injection, schedule: Q01DX009 (ip), vehicle: saline with Tween-80
[4] = endpoint: mean survival time, dose: 200.0 mg/kg/injection, schedule: Q04DX003 (ip), vehicle: saline with Tween-80
[5] = endpoint: mean survival time, dose: 400.0 mg/kg/injection, schedule: Q04DX003 (ip), vehicle: saline with Tween-80
[6] = endpoint: mean survival time, dose: 400.0 mg/kg/injection, schedule: Q01DX009 (ip), vehicle: saline with Tween-80

CC(C)c1ccc(C2CCCCC2O)cc1 (stereo not drawn)
T/C [1]: 89 % of control | T/C [2]: 105 % of control | T/C [3]: 92 % of control | T/C [4]: 91 % of control | T/C [5]: 94 % of control

CC(=O)Nc1nnc(-c2ccc([N+](=O)[O-])o2)s1
T/C (endpoint: mean survival time, dose: 75.0 mg/kg/injection, schedule: Q04DX003 (ip), vehicle: saline): 97 % of control | T/C (endpoint: mean survival time, dose: 150.0 mg/kg/injection, schedule: Q04DX003 (ip), vehicle: saline): 100 % of control | T/C (endpoint: mean survival time, dose: 300.0 mg/kg/injection, schedule: Q04DX003 (ip), vehicle: saline): 97 % of control

O=c1c2ccccc2[nH]c(=S)n1C1CCCC1
T/C (endpoint: mean survival time, dose: 100.0 mg/kg/injection, schedule: Q04DX002 (ip), vehicle: saline with Tween-80): 96 % of control | T/C (endpoint: mean survival time, dose: 200.0 mg/kg/injection, schedule: Q04DX002 (ip), vehicle: saline with Tween-80): 108 % of control | T/C (endpoint: mean survival time, dose: 400.0 mg/kg/injection, schedule: Q04DX002 (ip), vehicle: saline with Tween-80): 100 % of control

c1ccc(C(Nc2ncnc3nncnc23)c2ccccc2)cc1
T/C (endpoint: mean survival time, dose: 75.0 mg/kg/injection, schedule: Q01DX001 (ip), vehicle: other): 94 % of control

COc1ccc(Cn2cnc3c(=S)nc[nH]c32)cc1
T/C (endpoint: mean survival time, dose: 100.0 mg/kg/injection, schedule: Q01DX001 (ip), vehicle: Klucel (hydroxypropylcellulose) (HPC)): 91 % of control | T/C (endpoint: mean survival time, dose: 200.0 mg/kg/injection, schedule: Q01DX001 (ip), vehicle: Klucel (hydroxypropylcellulose) (HPC)): 100 % of control | T/C (endpoint: mean survival time, dose: 400.0 mg/kg/injection, schedule: Q01DX001 (ip), vehicle: Klucel (hydroxypropylcellulose) (HPC)): 94 % of control

CN(C)CC(=O)Nc1cc(Cl)ccc1Oc1ccc(Cl)cc1
T/C [1]: 103 % of control | T/C [3]: 100 % of control | T/C [6]: 105 % of control

O=S(=O)(O)SCC1NCCCN1
T/C (endpoint: mean survival time, dose: 12.5 mg/kg/injection, schedule: Q04DX002 (ip), vehicle: saline): 108 % of control | T/C (endpoint: mean survival time, dose: 25.0 mg/kg/injection, schedule: Q04DX002 (ip), vehicle: saline): 101 % of control | T/C (endpoint: mean survival time, dose: 50.0 mg/kg/injection, schedule: Q04DX002 (ip), vehicle: saline): 101 % of control

CC(C)(C)OC(=O)NCCCCC(NC(=O)CNC(=O)C(CSC(c1ccccc1)(c1ccccc1)c1ccccc1)NC(=O)OC(C)(C)C)C(=O)O (stereo not drawn) (Boc-Cys(Trt)-Gly-Lys(Boc)-OH; configuration not given here)
T/C (endpoint: mean survival time, dose: 100.0 mg/kg/injection, schedule: Q04DX003 (ip), vehicle: saline sonified): 86 % of control

COc1cc(C(CC(C)=O)c2cc3c(cc2OC(C)=O)OCO3)cc(OC)c1OC (stereo not drawn) (tested in a mixture with another compound)
T/C (endpoint: median survival time, dose: 15.0 mg/kg/injection, schedule: Q01DX005 (ip), vehicle: saline with Tween-80): 103 % of control | T/C (endpoint: median survival time, dose: 30.0 mg/kg/injection, schedule: Q01DX005 (ip), vehicle: saline with Tween-80): 101 % of control | T/C (endpoint: median survival time, dose: 43.2 mg/kg/injection, schedule: Q01DX005 (ip), vehicle: saline with Tween-80): 105 % of control | T/C (endpoint: median survival time, dose: 60.0 mg/kg/injection, schedule: Q01DX005 (ip), vehicle: saline with Tween-80): 114 % of control | T/C (endpoint: median survival time, dose: 72.0 mg/kg/injection, schedule: Q01DX005 (ip), vehicle: saline with Tween-80): 113 % of control and 110 % of control | T/C (endpoint: median survival time, dose: 200.0 mg/kg/injection, schedule: Q01DX005 (ip), vehicle: saline with Tween-80): 162 % of control and 168 % of control | T/C (endpoint: median survival time, dose: 240.0 mg/kg/injection, schedule: Q01DX005 (ip), vehicle: saline with Tween-80): 103 % of control

O.O=C(O)C(Cc1ccc(O)cc1)N=Cc1c(O)cncc1COP(=O)(O)O.[Cu] (stereo not drawn)
T/C (endpoint: mean survival time, dose: 12.5 mg/kg/injection, schedule: Q01DX001 (ip), vehicle: saline with Tween-80): 95 % of control | T/C (endpoint: mean survival time, dose: 25.0 mg/kg/injection, schedule: Q01DX001 (ip), vehicle: saline with Tween-80): 103 % of control | T/C (endpoint: mean survival time, dose: 50.0 mg/kg/injection, schedule: Q01DX001 (ip), vehicle: saline with Tween-80): 98 % of control

CCOC(=O)C(CC)C(=O)OCC
T/C [1]: 94 % of control | T/C [3]: 93 % of control | T/C [6]: 94 % of control

CC1(C)NC(=O)N(Br)C1=O
T/C [1]: 88 % of control | T/C [2]: 103 % of control | T/C [3]: 89 % of control | T/C [4]: 96 % of control | T/C [5]: 103 % of control

CN(C)S(=O)(=O)C(C)(C)c1ccccc1
T/C (endpoint: mean survival time, dose: 100.0 mg/kg/injection, schedule: Q01DX001 (ip), vehicle: saline with Tween-80): 100 % of control | T/C [1]: 96 % of control | T/C [2]: 94 % of control | T/C (endpoint: mean survival time, dose: 200.0 mg/kg/injection, schedule: Q01DX001 (ip), vehicle: saline with Tween-80): 101 % of control | T/C [3]: 96 % of control | T/C [4]: 94 % of control | T/C (endpoint: mean survival time, dose: 400.0 mg/kg/injection, schedule: Q01DX001 (ip), vehicle: saline with Tween-80): 100 % of control | T/C [5]: 96 % of control

Source: PubChem BioAssay AID256 (DTP/NCI, 2004)
